Common to all, as to format: biochemical
One assay addresses CDK1-cyclin B (Homo sapiens, UniProt P06493). The assay is described as follows: Kinase assay (radioactive phosphate incorporation), CDK1-cyclin B. The note with it: read-out: Kinase Inhibition pIC50 CDK1-cyclin B (converted). The method, boiled down: (§1)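 Inhibition was measured as transfer of radiolabelled phosphate from [γ-32P]-ATP (100 μM ATP, 15 mM MgCl2) onto polypeptide substrates by recombinant kinases or kinase complexes. Reactions ran at 30° C in MOPS/β-glycerophosphate buffer, pH 7.4, were stopped on ice and filtered before scintillation counting.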

Assay [1] concerns the target T1, GSK3b (Homo sapiens, UniProt P49841). The assay is described as follows: Kinase assay (radioactive phosphate incorporation), GSK-3b. The note with it: read-out: Kinase Inhibition pIC50 GSK-3b (converted). Summed up: as §1
Another assay has as its target MAPK2/ERK2 (Homo sapiens, UniProt P28482). As to the kind of experiment: Kinase selectivity profile, MAPK2/ERK2. The note with it: 5 μM test compound, compared to control; ATP 50 μM. The procedure: (§2) The kinase selectivity profiles of selected example compounds were determined, essentially as described (Bain, J.; McLauchlan, H.; Elliott, M.; Cohen, P. Biochemical Journal, 2003, 371, 199.); the results are shown in Tables 3 & 4. For the assays shown in Table 3, the kinases were assayed at the following ATP concentrations: SAPK4, PKBΔph, GSK3b, SAPK3, CK2, MKK1, PIM2, IKKB, ERK8, and PRK2 at 5 μM; JNK, PRAK, ROCK-II, SAPK2b, CDK2, CHK1, MSK1, CSK, P70S6K, PKA, CK1, MAPKAP-K2, SGK, PKCa, PDK1, NEK 7, and MAPKAP-K3 at 20 μM; SAPK2a, LCK, AMPK, MAPK2, DYRK1a, MAPKAP-K1a, NEK-6, NEK2a, PBK, CAMK-1, SRPK-1, JNK3, MNK2, RSK2, MNK1, PKBB, and SmMLCK at 50 μM. For the assays in Table 4 the ATP concentration was 100 μM throughout.

Another assay addresses JNK/SAPK1c (Homo sapiens, UniProt P45983). As to the kind of experiment: Kinase selectivity profile, JNK/SAPK1c. The note with it: 5 μM test compound, compared to control; ATP 20 μM. On the procedure:
as §2

The next assay has as its target SAPK2a/p38 (Homo sapiens, UniProt Q16539). As to the kind of experiment: Kinase selectivity profile, SAPK2a/p38. The note with it: 5 μM test compound, compared to control; ATP 50 μM. The procedure: as §2
The next assay concerns the target SAPK2b/p38β2 (Homo sapiens, UniProt Q15759). As to the kind of experiment: Kinase selectivity profile, SAPK2b/p38β2. The note with it: 5 μM test compound, compared to control; ATP 20 μM. The procedure: as §2
The target in a further assay is SAPK3/p38g (Homo sapiens, UniProt P53778). The assay is described as follows: Kinase selectivity profile, SAPK3/p38g. The note with it: 5 μM test compound, compared to control; ATP 5 μM. On the procedure: as §2
The target of a further assay is MAPKAP-K2 (Homo sapiens, UniProt P49137). The assay is described as follows: Kinase selectivity profile, MAPKAP-K2. The note with it: 5 μM test compound, compared to control; ATP 20 μM. On the procedure: as §2
Another assay deals with PKCa (Homo sapiens, UniProt P17252). As to the kind of experiment: Kinase selectivity profile, PKCa. The note with it: 5 μM test compound, compared to control; ATP 20 μM. On the procedure:
as §2

For the next assay, the target named is p70 S6K (Homo sapiens, UniProt P23443). The assay is described as follows: Kinase selectivity profile, p70 S6K. The note with it: 5 μM test compound, compared to control; ATP 20 μM. The procedure:
as §2

Assay [2] deals with T1, GSK3b. As to the kind of experiment: Kinase selectivity profile, GSK3b. The note with it: 5 μM test compound, compared to control; ATP 5 μM. The procedure:
as §2

A further assay concerns the target ROCK-II (Homo sapiens, UniProt O75116). As to the kind of experiment: Kinase selectivity profile, ROCK-II. The note with it: 5 μM test compound, compared to control; ATP 20 μM. The procedure: as §2
A further assay concerns the target CHK1 (Homo sapiens, UniProt O14757). As to the kind of experiment: Kinase selectivity profile, CHK1. The note with it: 5 μM test compound, compared to control; ATP 20 μM. On the procedure: as §2
For a further assay, the target named is Lck (Homo sapiens, UniProt P06239). As to the kind of experiment: Kinase selectivity profile, Lck. The note with it: 5 μM test compound, compared to control; ATP 50 μM. On the procedure:
as §2

The next assay has as its target DYRK1a (Homo sapiens, UniProt Q13627). The assay is described as follows: Kinase selectivity profile, DYRK1a. The note with it: 5 μM test compound, compared to control; ATP 50 μM. The procedure:
as §2

Another assay concerns the target NEK6 (Homo sapiens, UniProt Q9HC98). As to the kind of experiment: Kinase selectivity profile, NEK6. The note with it: 5 μM test compound, compared to control; ATP 50 μM. On the procedure: as §2
A further assay has as its target MAPKAP-K1b (Homo sapiens, UniProt P51812). As to the kind of experiment: Kinase selectivity profile, MAPKAP-K1b. The note with it: 5 μM test compound, compared to control. On the procedure: as §2
The target of another assay is IKKb (Homo sapiens, UniProt O14920). The assay is described as follows: Kinase selectivity profile, IKKb. The note with it: 5 μM test compound, compared to control; ATP 5 μM. On the procedure: as §2
For the next assay, the target named is smMLCK (Homo sapiens, UniProt Q15746). As to the kind of experiment: Kinase selectivity profile, smMLCK. The note with it: 5 μM test compound, compared to control; ATP 50 μM. On the procedure: as §2
In a further assay the target is MNK2 (Homo sapiens, UniProt Q9HBH9). As to the kind of experiment: Kinase selectivity profile, MNK2. The note with it: 5 μM test compound, compared to control; ATP 50 μM. On the procedure:
as §2

For a further assay, the target named is PIM2 (Homo sapiens, UniProt Q9P1W9). As to the kind of experiment: Kinase selectivity profile, PIM2. The note with it: 5 μM test compound, compared to control; ATP 5 μM. On the procedure: as §2
Chain of PIM2 (Q9P1W9 whole entry, species assumed): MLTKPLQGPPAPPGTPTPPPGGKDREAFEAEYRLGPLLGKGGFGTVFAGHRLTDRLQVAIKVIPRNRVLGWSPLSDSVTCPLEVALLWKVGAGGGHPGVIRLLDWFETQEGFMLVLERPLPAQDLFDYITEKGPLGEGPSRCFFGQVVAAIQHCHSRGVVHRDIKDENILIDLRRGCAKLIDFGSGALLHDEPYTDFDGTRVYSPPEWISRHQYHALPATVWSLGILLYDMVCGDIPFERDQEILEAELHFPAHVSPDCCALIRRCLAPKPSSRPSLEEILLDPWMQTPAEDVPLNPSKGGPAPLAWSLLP
A further assay concerns the target JNK3 (Homo sapiens, UniProt P53779). The assay is described as follows: Kinase selectivity profile, JNK3. The note with it: 5 μM test compound, compared to control; ATP 50 μM. On the procedure:
as §2

In a further assay the target is ERK8 (Homo sapiens, UniProt Q8TD08). The assay is described as follows: Kinase selectivity profile, ERK8. The note with it: 5 μM test compound, compared to control; ATP 5 μM. On the procedure: as §2
The next assay concerns the target MNK1 (Homo sapiens, UniProt Q9BUB5). The assay is described as follows: Kinase selectivity profile, MNK1. The note with it: 5 μM test compound, compared to control; ATP 50 μM. The procedure: as §2
In the next assay the target is PKBb (Homo sapiens, UniProt P31751). The assay is described as follows: Kinase selectivity profile, PKBb. The note with it: 5 μM test compound, compared to control; ATP 50 μM. The procedure: as §2
Chain of PKBb (P31751 whole entry): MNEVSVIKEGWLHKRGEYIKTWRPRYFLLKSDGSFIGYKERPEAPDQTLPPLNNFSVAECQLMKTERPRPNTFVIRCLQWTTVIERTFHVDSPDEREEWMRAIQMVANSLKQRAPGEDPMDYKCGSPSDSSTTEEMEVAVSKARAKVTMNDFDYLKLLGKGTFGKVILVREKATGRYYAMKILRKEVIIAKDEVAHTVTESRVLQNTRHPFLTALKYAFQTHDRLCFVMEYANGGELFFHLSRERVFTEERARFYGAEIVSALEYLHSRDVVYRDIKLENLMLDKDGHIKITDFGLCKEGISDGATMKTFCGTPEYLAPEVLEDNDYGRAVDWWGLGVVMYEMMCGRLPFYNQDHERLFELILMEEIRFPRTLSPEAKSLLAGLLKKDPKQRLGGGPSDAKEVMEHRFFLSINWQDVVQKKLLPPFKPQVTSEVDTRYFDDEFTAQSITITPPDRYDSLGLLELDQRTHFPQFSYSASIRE
The target of the next assay is Aurora B (Homo sapiens, UniProt Q96GD4). As to the kind of experiment: Kinase selectivity profile, Aurora B. The note with it: 5 μM test compound, compared to control. On the procedure: as §2

What is called remaining activity is the activity still measured, relative to the control. Read a low remaining activity as little activity left.

T1 sequence (P49841 whole entry, species assumed): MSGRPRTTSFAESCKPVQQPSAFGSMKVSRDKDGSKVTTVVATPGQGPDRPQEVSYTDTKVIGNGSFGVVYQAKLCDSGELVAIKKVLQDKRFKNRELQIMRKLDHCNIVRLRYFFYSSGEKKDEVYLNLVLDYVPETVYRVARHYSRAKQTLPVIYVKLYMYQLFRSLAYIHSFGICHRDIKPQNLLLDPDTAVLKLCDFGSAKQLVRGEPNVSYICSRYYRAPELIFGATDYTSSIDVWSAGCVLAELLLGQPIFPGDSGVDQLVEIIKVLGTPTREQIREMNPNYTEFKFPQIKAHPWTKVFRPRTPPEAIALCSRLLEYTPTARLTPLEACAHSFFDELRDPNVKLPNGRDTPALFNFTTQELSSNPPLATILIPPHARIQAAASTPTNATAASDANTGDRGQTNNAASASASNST
Chain of CDK1-cyclin B (P06493 whole entry): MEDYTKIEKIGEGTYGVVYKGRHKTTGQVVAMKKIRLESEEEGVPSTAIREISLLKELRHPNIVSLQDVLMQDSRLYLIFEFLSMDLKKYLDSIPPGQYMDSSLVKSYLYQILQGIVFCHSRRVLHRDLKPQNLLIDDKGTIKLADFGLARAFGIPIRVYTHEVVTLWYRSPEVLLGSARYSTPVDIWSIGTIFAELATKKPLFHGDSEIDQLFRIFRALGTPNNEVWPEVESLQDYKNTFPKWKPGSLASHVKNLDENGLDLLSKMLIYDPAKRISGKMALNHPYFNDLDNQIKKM
Chain of CDK1-cyclin B (P14635 whole entry partner): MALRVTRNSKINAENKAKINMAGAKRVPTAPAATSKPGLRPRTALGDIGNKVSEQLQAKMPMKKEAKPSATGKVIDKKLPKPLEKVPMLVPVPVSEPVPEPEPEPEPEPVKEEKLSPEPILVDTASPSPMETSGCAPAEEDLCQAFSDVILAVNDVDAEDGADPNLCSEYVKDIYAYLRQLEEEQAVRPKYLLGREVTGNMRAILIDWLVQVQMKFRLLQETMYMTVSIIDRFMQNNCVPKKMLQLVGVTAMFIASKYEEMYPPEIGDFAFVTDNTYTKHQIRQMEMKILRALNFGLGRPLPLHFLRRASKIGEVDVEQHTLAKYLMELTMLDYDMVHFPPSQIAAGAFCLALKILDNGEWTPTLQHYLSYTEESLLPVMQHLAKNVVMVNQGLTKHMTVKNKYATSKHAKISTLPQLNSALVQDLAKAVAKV
Chain of p70 S6K (P23443 whole entry): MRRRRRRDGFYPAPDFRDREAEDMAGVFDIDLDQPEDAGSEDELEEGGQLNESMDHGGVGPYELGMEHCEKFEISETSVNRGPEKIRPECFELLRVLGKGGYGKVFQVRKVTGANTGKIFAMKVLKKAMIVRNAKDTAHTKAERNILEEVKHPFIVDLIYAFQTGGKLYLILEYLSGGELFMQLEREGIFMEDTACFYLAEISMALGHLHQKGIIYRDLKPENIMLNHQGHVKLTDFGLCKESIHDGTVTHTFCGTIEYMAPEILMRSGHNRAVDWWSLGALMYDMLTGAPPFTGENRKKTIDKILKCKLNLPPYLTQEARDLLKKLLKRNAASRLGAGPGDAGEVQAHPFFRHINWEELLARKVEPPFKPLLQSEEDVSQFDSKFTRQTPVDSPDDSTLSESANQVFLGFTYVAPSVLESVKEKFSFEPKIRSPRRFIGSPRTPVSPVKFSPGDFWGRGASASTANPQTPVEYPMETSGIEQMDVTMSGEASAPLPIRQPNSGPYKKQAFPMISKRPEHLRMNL
Chain of JNK/SAPK1c (P45983 whole entry): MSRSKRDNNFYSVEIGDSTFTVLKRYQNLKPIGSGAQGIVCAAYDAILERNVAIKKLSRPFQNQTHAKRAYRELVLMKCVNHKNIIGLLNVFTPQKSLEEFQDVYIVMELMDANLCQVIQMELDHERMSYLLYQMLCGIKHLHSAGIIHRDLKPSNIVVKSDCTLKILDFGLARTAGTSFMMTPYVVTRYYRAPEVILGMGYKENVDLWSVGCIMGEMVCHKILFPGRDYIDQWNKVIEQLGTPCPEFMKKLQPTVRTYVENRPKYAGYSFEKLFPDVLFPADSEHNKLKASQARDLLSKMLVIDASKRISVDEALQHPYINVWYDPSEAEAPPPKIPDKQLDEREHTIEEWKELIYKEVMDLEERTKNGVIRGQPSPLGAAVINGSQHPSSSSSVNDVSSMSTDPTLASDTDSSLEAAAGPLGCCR
Chain of CHK1 (O14757 whole entry, species assumed): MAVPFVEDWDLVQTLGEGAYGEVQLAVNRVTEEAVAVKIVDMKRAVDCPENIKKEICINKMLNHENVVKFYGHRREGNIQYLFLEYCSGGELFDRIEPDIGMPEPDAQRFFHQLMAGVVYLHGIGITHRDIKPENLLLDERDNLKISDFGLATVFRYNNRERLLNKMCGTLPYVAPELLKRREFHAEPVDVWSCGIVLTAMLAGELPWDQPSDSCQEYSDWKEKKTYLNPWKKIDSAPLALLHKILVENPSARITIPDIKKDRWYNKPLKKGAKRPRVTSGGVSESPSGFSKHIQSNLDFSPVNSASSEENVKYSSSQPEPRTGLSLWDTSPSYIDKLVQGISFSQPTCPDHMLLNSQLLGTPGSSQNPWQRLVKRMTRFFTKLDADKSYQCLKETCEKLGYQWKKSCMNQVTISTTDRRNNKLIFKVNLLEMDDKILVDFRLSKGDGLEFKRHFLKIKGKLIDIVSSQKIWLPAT
Chain of MNK1 (Q9BUB5 whole entry, species assumed): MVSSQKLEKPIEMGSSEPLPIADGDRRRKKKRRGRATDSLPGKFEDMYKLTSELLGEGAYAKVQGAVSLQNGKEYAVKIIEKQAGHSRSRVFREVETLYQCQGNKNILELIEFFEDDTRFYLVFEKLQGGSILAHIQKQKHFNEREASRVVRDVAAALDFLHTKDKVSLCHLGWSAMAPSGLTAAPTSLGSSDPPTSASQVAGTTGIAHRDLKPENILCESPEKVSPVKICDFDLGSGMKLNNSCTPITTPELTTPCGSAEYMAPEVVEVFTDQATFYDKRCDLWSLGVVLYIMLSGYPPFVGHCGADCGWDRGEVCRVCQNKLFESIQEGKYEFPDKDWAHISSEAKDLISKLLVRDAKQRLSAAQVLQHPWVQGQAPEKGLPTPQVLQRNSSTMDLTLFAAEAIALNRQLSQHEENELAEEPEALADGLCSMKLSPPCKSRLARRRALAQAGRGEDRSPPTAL
Chain of MNK2 (Q9HBH9 whole entry, species assumed): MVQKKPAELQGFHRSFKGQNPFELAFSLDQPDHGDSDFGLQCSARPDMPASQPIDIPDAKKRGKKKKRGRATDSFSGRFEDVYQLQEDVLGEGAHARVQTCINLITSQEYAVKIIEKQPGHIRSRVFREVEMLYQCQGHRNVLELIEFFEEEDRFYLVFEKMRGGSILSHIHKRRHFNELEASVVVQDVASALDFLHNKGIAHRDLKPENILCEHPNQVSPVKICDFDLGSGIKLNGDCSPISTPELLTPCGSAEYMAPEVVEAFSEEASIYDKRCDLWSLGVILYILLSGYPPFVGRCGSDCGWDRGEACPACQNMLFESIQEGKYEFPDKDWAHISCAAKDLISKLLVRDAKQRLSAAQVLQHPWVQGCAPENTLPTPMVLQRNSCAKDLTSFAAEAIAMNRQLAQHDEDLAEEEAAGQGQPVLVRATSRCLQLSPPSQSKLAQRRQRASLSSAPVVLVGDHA
Chain of SAPK2b/p38β2 (Q15759 whole entry): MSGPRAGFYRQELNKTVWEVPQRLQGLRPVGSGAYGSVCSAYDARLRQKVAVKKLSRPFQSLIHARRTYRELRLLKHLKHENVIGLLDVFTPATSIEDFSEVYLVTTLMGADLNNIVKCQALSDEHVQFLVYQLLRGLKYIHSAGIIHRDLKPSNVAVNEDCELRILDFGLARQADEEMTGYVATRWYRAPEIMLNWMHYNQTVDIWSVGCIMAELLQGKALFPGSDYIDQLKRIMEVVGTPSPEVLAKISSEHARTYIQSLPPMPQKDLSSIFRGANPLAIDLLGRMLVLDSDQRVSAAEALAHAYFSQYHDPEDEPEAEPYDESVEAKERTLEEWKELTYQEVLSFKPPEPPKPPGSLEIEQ

Take `CNc1nc(C)c(-c2ccnc(Nc3cccc(S(N)(=O)=O)c3)n2)s1` [Compound 19, 3-[4-(4-Methyl-2-methylamino-thiazol-5-yl)-pyrimidin-2-ylamino]-benzenesulfonamide]: the IC50 on CDK1-cyclin B was 200 nM; at GSK3b [1] it was 158 nM.

For the molecule `CNc1nc(C)c(-c2ccnc(Nc3cccc(S(C)(=O)=O)c3)n2)s1` [Compound 27, (3-Methanesulfonyl-phenyl)-[4-(4-methyl-2-methylamino-thiazol-5-yl)-pyrimidin-2-yl]-amine], the IC50 on CDK1-cyclin B was 251 nM; on GSK3b [1], 100 nM.

Take `CNc1nc(C)c(-c2ccnc(Nc3ccc(C)c(S(=O)(=O)N4CCOCC4)c3)n2)s1` [Compound 37, [4-(4-Methyl-2-methylamino-thiazol-5-yl)-pyrimidin-2-yl]-[4-methyl-3-(morpholine-4-sulfonyl)-phenyl]-amine]: on GSK3b [1], the IC50 is 1260 nM.

As for `Cc1ccc(Nc2nccc(-c3sc(N)nc3C)n2)cc1S(=O)(=O)N1CCOCC1` [Compound 38, [4-(2-Amino-4-methyl-thiazol-5-yl)-pyrimidin-2-yl]-[4-methyl-3-(morpholine-4-sulfonyl)-phenyl]-amine], the IC50 on GSK3b [1] was 2000 nM.

As for `COCCNS(=O)(=O)c1cccc(Nc2nccc(-c3sc(N)nc3C)n2)c1` [Compound 55, 3-[4-(2-Amino-4-methyl-thiazol-5-yl)-pyrimidin-2-ylamino]-N-(2-methoxy-ethyl)-benzenesulfonamide], the IC50 at CDK1-cyclin B was 3160 nM; on GSK3b [1], 501 nM.

As for `CCNc1nc(C)c(-c2ccnc(Nc3ccc(N4CCNCC4)cc3)n2)s1` [Compound 59, [4-(2-Ethylamino-4-methyl-thiazol-5-yl)-pyrimidin-2-yl]-(4-piperazin-1-yl-phenyl)-amine], the IC50 at CDK1-cyclin B is 1000 nM. The remaining activity at 5 µM at MAPK2/ERK2 amounted to 59%; at JNK/SAPK1c it was 2%; on SAPK2a/p38, 39%; on SAPK2b/p38β2, 36%; at SAPK3/p38g, 69%; on MAPKAP-K2 it was 84%. In addition, the remaining activity at 5 µM on PKCa was 33%; on p70 S6K, 13%; on GSK3b [2], 37%; on ROCK-II, 5%; on CHK1, 10%; on Lck, 1%. The remaining activity at 5 µM on DYRK1a was found to be 4%; on NEK6, 47%; on MAPKAP-K1b, 17%; on IKKb, 7%; at smMLCK, 10%; at MNK2 it was 20%. Further, the remaining activity at 5 µM at PIM2 was 80%; on JNK3 it was 13%; on ERK8, 4%; at MNK1 it was 3%; at PKBb it was 75%; on Aurora B, 4%.

Turning to `Cc1nc(CS(=O)(=O)c2cccs2)sc1-c1ccnc(Nc2ccc(N3CCOCC3)cc2)n1` [Compound 138, {4-[4-Methyl-2-(thiophene-2-sulfonylmethyl)-thiazol-5-yl]-pyrimidin-2-yl}-(4-morpholin-4-yl-phenyl)-amine], the remaining activity at 5 µM at MAPK2/ERK2 was found to be 39%; on JNK/SAPK1c, 10%; at SAPK2a/p38, 33%; at SAPK2b/p38β2, 42%; on SAPK3/p38g, 74%; at MAPKAP-K2, 84%. Further, the remaining activity at 5 µM at PKCa was 41%; on p70 S6K, 41%; on GSK3b [2] it was 21%; on ROCK-II, 14%; at CHK1, 55%; on Lck, 7%. Further, the remaining activity at 5 µM on DYRK1a came out at 27%; at NEK6 it was 80%; at MAPKAP-K1b, 48%; at IKKb, 34%; on smMLCK, 44%; at MNK2, 27%. Besides, the remaining activity at 5 µM is 93% at PIM2; 15% at JNK3; 11% on ERK8; 18% on MNK1; 92% on PKBb; 5% on Aurora B.
